Key:
RCC4 = experiment: XTT IC50 / viability assay, RCC4 cells; format: cell-based, human; conditions: Homo sapiens, RCC4, 96 h; XTT assay, four days
Outline: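 RCC4 parental and VHL-reintroduced RCC4/VHL cells (DMEM, 10% FCS) treated with serially diluted drug for four days. Viability by XTT (0.3 mg/mL) with N-methyl dibenzopyrazine methyl sulfate, 1–2 h at 37 °C, absorbance 450 nm; IC50 by linear interpolation.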

Row | melting point [°C] | Compound | IC50 (RCC4) [µM]
1 | 218 to 221 | Cc1c(Cl)cccc1S(=O)(=O)NCc1ccc(C(=O)Nc2cccnc2)cc1 [Example 68, 4-((3-Chloro-2-methylphenylsulfonamido)methyl)-N-(pyridin-3-yl)benzamide] | > 20
2 | 241 to 243 | Cc1cc(C)cc(C(=O)NCc2ccc(C(=O)Nc3cccnc3)cc2)c1 [Example 87, 3,5-Dimethyl-N-(4-(pyridin-3-ylcarbamoyl)benzyl)benzamide] | > 20
3 | 219 to 220 | COc1ccc(C(=O)NCc2ccc(C(=O)Nc3cccnc3)cc2)cc1OC [Example 88, 3,4-Dimethoxy-N-(4-(pyridin-3-ylcarbamoyl)benzyl)benzamide] | > 20
4 | 230 to 231 | O=C(Nc1ccc[n+]([O-])c1)c1ccc(CNS(=O)(=O)c2ccccc2)cc1 [Example 93, N-(1-Oxido-3-pyridinyl)-4-((phenylsulfonamido)methyl)-benzamide] | > 20
5 | 270 to 273 | O=C(Nc1ccncc1)c1ccc(CNS(=O)(=O)c2ccc(I)cc2)cc1 [Example 99] | > 20
6 | 172 to 174 | COCCCc1ccc(S(=O)(=O)NCc2ccc(C(=O)Nc3cccnc3)cc2)cc1 [Example 101, 4-[({[4-(3-Methoxypropyl)phenyl]sulfonyl}amino)methyl]-N-(3-pyridinyl)benzamide] | 1 to 20
7 | 207 to 210 | O=C(Nc1cccnc1)c1ccc(CNS(=O)(=O)c2ccc(C#CCO)cc2)cc1 [Example 103, 4-[({[4-(3-Hydroxy-1-propynyl)phenyl]sulfonyl}amino)methyl]-N-(3-pyridinyl)benzamide] | > 20
8 | 189 to 191 | Cc1cncc(NC(=O)c2ccc(CNS(=O)(=O)c3ccc(C(C)(C)C)cc3)cc2)c1 [Example 107, 4-({[(4-tert-Butylphenyl)sulfonyl]amino}methyl)-N-(5-methyl-3-pyridinyl)benzamide] | > 20
9 | 188 to 190 | Cc1ncccc1NC(=O)c1ccc(CNS(=O)(=O)c2ccc(C(C)(C)C)cc2)cc1 [Example 108, 4-({[(4-tert-Butylphenyl)sulfonyl]amino}methyl)-N-(2-methyl-3-pyridinyl)benzamide] | > 20
10 | 235 to 237 | Cc1ccc(NC(=O)c2ccc(CNS(=O)(=O)c3ccc(C(C)(C)C)cc3)cc2)cn1 [Example 109, 4-({[(4-tert-Butylphenyl)sulfonyl]amino}methyl)-N-(6-methyl-3-pyridinyl)benzamide] | > 20
11 | 238 to 240 | COc1ccc(NC(=O)c2ccc(CNS(=O)(=O)c3ccc(C(C)(C)C)cc3)cc2)cn1 [Example 110, 4-({[(4-tert-Butylphenyl)sulfonyl]amino}methyl)-N-(6-methoxy-3-pyridinyl)benzamide] | > 20
12 | 251 to 253 | CC(C)(C)c1ccc(S(=O)(=O)NCc2ccc(C(=O)Nc3ccc(Cl)nc3)cc2)cc1 [Example 111, 4-({[(4-tert-Butylphenyl)sulfonyl]amino}methyl)-N-(6-chloro-3-pyridinyl)benzamide] | > 20
13 | 183 to 185 | Cc1ccncc1NC(=O)c1ccc(CNS(=O)(=O)c2ccc(C(C)(C)C)cc2)cc1 [Example 114, 4-({[(4-tert-Butylphenyl)sulfonyl]amino}methyl)-N-(4-methyl-3-pyridinyl)benzamide] | > 20
14 | 217 to 219 | CC(C)(C)c1ccc(S(=O)(=O)NCc2ccc(C(=O)Nc3cncc(Cl)c3)cc2)cc1 [Example 115, 4-({[(4-tert-Butylphenyl)sulfonyl]amino}methyl)-N-(5-chloro-3-pyridinyl)benzamide] | > 20
15 | 191 to 193 | CC(C)(C)c1ccc(S(=O)(=O)NCc2ccc(C(=O)Nc3cccnc3[N+](=O)[O-])cc2)cc1 [Example 116, 4-({[(4-tert-Butylphenyl)sulfonyl]amino}methyl)-N-(2-nitro-3-pyridinyl)benzamide] | > 20
16 | 249 to 252 | CC(C)(C)c1ccc(S(=O)(=O)NCc2ccc(C(=O)Nc3ccc(C(F)(F)F)nc3)cc2)cc1 [Example 118, 4-({[(4-tert-Butylphenyl)sulfonyl]amino}methyl)-N-[6-(trifluoromethyl)-3-pyridinyl]benzamide] | > 20
17 | 240 to 243 | CC(=O)Nc1ccc(NC(=O)c2ccc(CNS(=O)(=O)c3ccc(C(C)(C)C)cc3)cc2)cn1 [Example 119, N-[6-(Acetylamino)-3-pyridinyl]-4-({[(4-tert-butylphenyl)sulfonyl]amino}methyl)benzamide] | > 20
18 | 254 to 257 | CC(C)(C)c1ccc(S(=O)(=O)NCc2ccc(C(=O)Nc3ccc(F)nc3)cc2)cc1 [Example 120, 4-({[(4-tert-Butylphenyl)sulfonyl]amino}methyl)-N-(6-fluoro-3-pyridinyl)benzamide] | > 20
19 | 214 to 217 | CC(C)(C)c1ccc(S(=O)(=O)NCc2ccc(C(=O)Nc3cncc(F)c3)cc2)cc1 [Example 121, 4-({[(4-tert-Butylphenyl)sulfonyl]amino}methyl)-N-(5-fluoro-3-pyridinyl)benzamide] | > 20
20 | 231 to 233 | COc1ccncc1NC(=O)c1ccc(CNS(=O)(=O)c2ccc(C(C)(C)C)cc2)cc1 [Example 124, 4-({[(4-tert-Butylphenyl)sulfonyl]amino}methyl)-N-(4-methoxy-3-pyridinyl)benzamide] | > 20
21 | 242 to 244 | CC(C)(C)c1ccc(S(=O)(=O)NCc2ccc(C(=O)Nc3ccc(Br)nc3)cc2)cc1 [Example 125, N-(6-Bromo-3-pyridinyl)-4-({[(4-tert-butylphenyl)sulfonyl]amino}methyl)benzamide] | > 20
22 | 227 to 229 | O=C(Nc1cccnc1)c1ccc(CNS(=O)(=O)c2ccc(-c3cccc(C(F)(F)F)c3)cc2)cc1 [Example 134, N-(3-Pyridinyl)-4-[({[3′-(trifluoromethyl)[1,1′-biphenyl]-4-yl]sulfonyl}amino)methyl]benzamide] | > 20
23 | 177 to 179 | CCCN(Cc1ccc(C(=O)Nc2cccnc2)cc1)S(=O)(=O)c1ccc(C(C)(C)C)cc1 [Example 140, 4-{[[(4-tert-Butylphenyl)sulfonyl](propyl)amino]methyl}-N-(3-pyridinyl)benzamide] | > 20
